Assay [1] relates to neutrophil recruitment to the endothelium. Description: Neutrophil recruitment in Airway-on-Chip emulating acute asthma exacerbation (HRV-16 infection, IL-13 stimulation). It counts as cell-based, human. The settings on record: 10 microM; three stimulation conditions (HRV-16, IL-13, HRV-16+IL-13); chips flipped. The source says:
As shown here, exemplary embodiments of an inflamed Airway-on-Chip emulating acute asthma exacerbation by combining Rhinovirus infection with IL-13 stimulation in the presence of an exemplary immuno-modulatory compound. In some embodiments, neutrophil recruitment following exacerbation with HRV can be reduced by an exemplary CXCR2 antagonist MK-7123, however these experiments were done by flipping chips. […] HRV-16 is represented as small green dots in the upper channel while neutrophil cells (also described as polymorphonuclear leukocytes (PMN)) are represented as large purple spots in the lower channel. […] Treatments included HRV-16 alone infected cells, IL-13 alone treated cells, HRV-16 and (+) IL-13 treated cells, HRV-16+CXCR2in (inhibitor) treated cells, and HRV-16+IL-13+CXCR2in. Non-stimulated chips are showing limited neutrophil recruitment while HRV infected and IL-13-treated chips show increased neutrophil recruitment. IL-13+HRV induce an additive increase in neutrophil recruitment, while treatment with a CXCR2 antagonist. […] Quantification of neutrophil recruitment (**p<0.01; ****p<0.001).
HRV-16 is represented as small green dots in the upper channel while neutrophil cells (also described as polymorphonuclear leukocytes (PMN)) are represented as large purple spots in the lower channel. […] Quantification of neutrophil recruitment (**p<0.01; ****p<0.001).

In assay [2] the test system is goblet cells hyperplasia, pro-inflammatory cytokines, cilia beating frequency. The assay is described as follows: Small-airway-on-a-chip perfused with IL-13 (Th2 microenvironment), airway remodeling phenotype. It counts as cell-based, human. As to conditions: IL-13 through the vascular channel.

Turning to `CC[C@@H](Nc1c(Nc2cccc(C(=O)N(C)C)c2O)c(=O)c1=O)c1ccc(C)o1` [MK-7123], the neutrophil recruitment result in assay [1] was “significantly reduced neutrophil recruitment”.
Consider `C[C@@H]1CCN(C(=O)CC#N)C[C@@H]1N(C)c1ncnc2[nH]ccc12` [Tofacitinib], for which the “IL-13 induced airway remodeling phenotype” value in assay [2] is given as “suppressed”.

(Values after patent publication US11788044B2, “Rheologically biomimetic fluid surrogate” (EMULATE, INC., priority 2017, dated 2023).)
